# Columns and labels:
# [1] = PTH administration following myeloablation and bone marrow transplantation: survival; assay type: in vivo, C57Bl/6 mice; details: at 30 days; lethal irradiation, limiting numbers of donor bone marrow cells, pulse dosing of PTH after transplant; FIG. 6
# Procedure: For the competitive transplant studies, 4×10^5 BM MNCs, obtained from CD45.1^+ B6.SJL (Jackson Laboratories, Bar Harbor, Me.) mice were mixed with 2×10^5 cells from mock injected or PTH injected CD45.2^+ C57Bl/6 mice. Recipient B6.SJL mice that had been lethally irradiated 24 hours previously with 10Gy of radiation (^137Cs source) were injected with cells. After 6 weeks, the mice were euthanized with CO2, the BM was removed and flushed with fully supplemented Iscove's Medium. The relative contribution of engraftment from the different cell sources was assessed by flow cytometry utilizing anti-CD45.1 and anti-CD45.2 antibodies (Pharmingen, San Diego, Calif.). To assess the effects of PTH administration post transplantation, recipient C57Bl/6 mice were lethally irradiated and then injected with 2×10^5 BM MNCs from a donor B6.SJL mouse. Twenty-four hours following the injection of the cells, mice were injected with PTH or mock injected as described above for four weeks.
# Assessing whether PPR stimulation could affect models relevant to the clinical use of stem cells in humans, the impact of PTH administration on animals undergoing myeloablation and bone marrow transplantation was assessed. Limiting numbers of bone marrow derived donor cells were used to mimic a setting of therapeutic need. […]
# [2] = test system: peripheral blood cells; test: Complete blood count during cyclophosphamide chemotherapy cycles; assay type: in vivo, C57Bl/6 mice
# Procedure: Wild-type C57Bl/6 mice were treated with 5 mg of cyclophosphamide (Day 1). The day following injection of cyclophosphamide, mice received no treatment or were treated for 8 days with G-CSF (5 μg/day), 11 days with PTH (80 μg/kg/day) or a combination of G-CSF plus PTH. Mice that received a combination of both G-CSF and PTH received G-CSF treatment for 8 days and PTH treatment for 11 days. Following this treatment protocol, mice were injected with cyclophosphamide on Day 15 and treated with G-CSF, PTH or G-CSF and PTH as described above. The treatment protocol was then repeated for two subsequent cycles, as outlined in FIG. 7.
# During the course of the four treatment cycles, peripheral blood complete blood count (CBC) analysis was performed every 2 to 3 days. This analysis involved the collection of 100 μl of peripheral blood from the tail vein of the mice, which was subsequently analyzed on a HEMAVET 850FS (Drew Scientific). To avoid any deleterious effects from repeated tail bleeds, each individual mouse was only bled once per week.
substance,measurement,setting,value
Rat PTH (1-34),survival,[1],100%
same,"WBC and NE counts following chemotherapy, effect of adding PTH",[2]; PTH 80 μg/kg/day 11 days added to G-CSF,not altered
same,hematological response to chemotherapy,"[2]; mice that did not receive G-CSF, PTH or not",no differences
